Laboratory results: ChEMBL document CHEMBL1201862, “PubChem BioAssay data set” (2004)
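Interpolation was linear, between the two tested concentrations surrounding the appropriate level; five concentrations were tested over 48 hours in 96-well plates. GI50 is the concentration that inhibits growth by half.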 Active and inactive are the calls of the source. No stated cut-off is given here; in the data, active = GI50 up to about 1.1 µM and inactive = higher.

Assays:
Assay in all cases: NCI tumour cell line growth inhibition, 48 h
[1] = test system: K562
[2] = test system: M14
[3] = test system: SK-OV-3
[4] = test system: UO-31
[5] = test system: NCI-H522
[6] = test system: UACC-257
[7] = test system: NCI-H226
[8] = test system: MCF7
[9] = test system: DLD-1
[10] = test system: ACHN
[11] = test system: HOP-62
[12] = test system: OVCAR-5
[13] = test system: MOLT-4
[14] = test system: NCI/ADR-RES
[15] = test system: RXF 631
[16] = test system: Hs-578T
[17] = test system: A549
[18] = test system: HOP-92
[19] = test system: SN12C
[20] = test system: CAKI-1
[21] = test system: DU-145
[22] = test system: RXF 393
[23] = test system: SF-295
[24] = test system: UACC-62
[25] = test system: HT-29
[26] = test system: RPMI-8226
[27] = test system: HCC 2998
[28] = test system: 786-0
[29] = test system: SK-MEL-5
[30] = test system: SNB-19
[31] = test system: SNB-78
[32] = test system: DMS-114
[33] = test system: EKVX
[34] = test system: KM12
[35] = test system: NCI-H23
[36] = test system: PC-3
[37] = test system: SF-268
[38] = test system: HOP-18
[39] = test system: SR
[40] = test system: HCT-15
[41] = test system: A498
[42] = test system: OVCAR-4
[43] = test system: NCI-H460
[44] = test system: U-251
[45] = test system: T47D
[46] = test system: BT-549
[47] = test system: MDA-MB-435
[48] = test system: LXFL 529
[49] = test system: DMS-273
[50] = test system: KM-20L2
[51] = test system: LOX IMVI
[52] = test system: MDA-MB-231
[53] = test system: SK-MEL-28
[54] = test system: SK-MEL-2
[55] = test system: OVCAR-8
[56] = test system: HL-60
[57] = test system: COLO 205
[58] = test system: SF-539
[59] = test system: SW-620
[60] = test system: TK-10
[61] = test system: MDA-N
[62] = test system: IGROV-1
[63] = test system: Malme-3M
[64] = test system: HCT-116
[65] = test system: XF498
[66] = test system: OVCAR-3
[67] = test system: CCRF-CEM
[68] = test system: M19-MEL
[69] = test system: SNB-75

For `CCOCC(=O)N[C@H]1CCc2cc(OC)c(OC)c(OC)c2-c2ccc(SC)c(=O)cc21`, the GI50 [1] was 14.6 nM (active), the GI50 [2] was < 10 nM (active) and the GI50 [3] was 27.2 nM (active). For the same molecule, the GI50 [4] was 18.8 nM (active), the GI50 [5] was < 10 nM (active) and the GI50 [6] was < 16.9 nM (active). For the same molecule, the GI50 [7] was 46.5 nM (active), the GI50 [8] was < 10 nM (active) and the GI50 [9] was < 10 nM (active). For the same molecule, the GI50 [10] was < 11.7 nM (active), the GI50 [11] was < 10 nM (active) and the GI50 [12] was 398 nM (active). The GI50 [13] was < 10 nM (active), the GI50 [14] was 15.9 nM (active) and the GI50 [15] was < 10 nM (active). The GI50 [16] was < 10 nM (active), the GI50 [17] was < 10 nM (active) and the GI50 [18] was < 10 nM (active). The GI50 [19] was < 10 nM (active), the GI50 [20] was < 10 nM (active) and the GI50 [21] was < 10 nM (active). For the same molecule, the GI50 [22] was < 10 nM (active), the GI50 [23] was < 10 nM (active) and the GI50 [24] was < 10 nM (active). The GI50 [25] was < 10 nM (active), the GI50 [26] was < 10 nM (active) and the GI50 [27] was < 10 nM (active). The GI50 [28] was < 10 nM (active), the GI50 [29] was < 10 nM (active) and the GI50 [30] was < 10 nM (active). The GI50 [31] was < 10 nM (active), the GI50 [32] was < 10 nM (active) and the GI50 [33] was 7940 nM (inactive). The GI50 [34] was < 10 nM (active), the GI50 [35] was < 10 nM (active) and the GI50 [36] was < 32.7 nM (active). For the same molecule, the GI50 [37] was < 10 nM (active), the GI50 [38] was > 75300 nM (inactive) and the GI50 [39] was < 10 nM (active). For the same molecule, the GI50 [40] was less than 10 nM, the GI50 [41] was < 10 nM (active) and the GI50 [42] was 3970 nM (inactive). The GI50 [43] was < 10 nM (active), the GI50 [44] was < 10 nM (active) and the GI50 [45] was > 100000 nM (inactive). For the same molecule, the GI50 [46] was < 10 nM (active), the GI50 [47] was < 10 nM (active) and the GI50 [48] was < 10 nM (active). For the same molecule, the GI50 [49] was < 10 nM (active), the GI50 [50] was < 10 nM (active) and the GI50 [51] was < 10 nM (active). The GI50 [52] was < 10 nM (active), the GI50 [53] was > 4650 nM (inactive) and the GI50 [54] was < 10 nM (active). The GI50 [55] was < 10 nM (active), the GI50 [56] was 21.7 nM (active) and the GI50 [57] was < 10 nM (active). The GI50 [58] was < 10 nM (active), the GI50 [59] was < 10 nM (active) and the GI50 [60] was 406 nM (active). The GI50 [61] was < 10 nM (active), the GI50 [62] was < 10 nM (active) and the GI50 [63] was < 10 nM (active). The GI50 [64] was < 10 nM (active), the GI50 [65] was < 22.4 nM (active) and the GI50 [66] was < 10 nM (active). For the same molecule, the GI50 [67] was < 18.2 nM (active), the GI50 [68] was < 10 nM (active) and the GI50 [69] was 10.2 nM (active).
